According to US12263163B2 (Kronos Bio, Inc., priority 2013, dated 2025):
Blank lines part the entries; values can stand above or below the molecule they belong to.

System: human hepatocytes
Test: Human Hepatocyte Stability Assay (predicted hepatocyte clearance)
Format: in vitro ADME
Conditions: comparison table with known Syk inhibitors, head prints (units)
Description: The human […] stability of the compounds as predicted hepatocyte clearance in L/hr/kg was assessed. Compounds to be tested were diluted to 200 μM (4 μl of 10 mM DMSO stock into 196 μl ACN:H2O (50:50). Propranolol was used as a positive control, and buffer only without hepatocytes as 0% control. These were further diluted 4 μl with 891 μl KHB buffer (InVitroGRO catalog number Z99074) to provide 2× dosing solution. To each well of 24 well plate, 250 μl of the 2× dosing solution was added to each well with 250 μl of hepatocytes cells (1×10^6 viable cells/ml per well) or KHB for control samples to achieve a final compound concentration of 1 μM during incubation. The final solvent concentration was 0.01% DMSO and 0.25% ACN. The culture plate was placed on a rocker and incubated at 37° C., 5% CO2. Samples were collected at time 0, 1, 3, and 6 hours. The loss of parent compound was determined using LC-MS methods against a standard curve.

SMILES: COc1ccc(Nc2nc(-c3cccc(N)c3)cn3ccnc23)cc1OC [6-(3-aminophenyl)-N-(3,4-dimethoxyphenyl)imidazo[1,2-a]pyrazin-8-amine, reference compound]
Hheps CL: 4 mL/min/kg

SMILES: Cc1ncc(-c2cn3ccnc3c(Nc3ccc(N4CCN(C5COC5)CC4)cc3)n2)nc1N [Ex.-1, 6-(6-amino-5-methylpyrazin-2-yl)-N-(4-(4-(oxetan-3-yl)piperazin-1-yl)phenyl)imidazo[1,2-a]pyrazin-8-amine]
Hheps CL: 2 mL/min/kg

SMILES: Nc1cncc(-c2cn3ccnc3c(Nc3ccc(N4CCN(C5COC5)CC4)cc3)n2)n1 [Ex.-2, 6-(6-aminopyrazin-2-yl)-N-(4-(4-(oxetan-3-yl)piperazin-1-yl)phenyl)imidazo[1,2-a]pyrazin-8-amine]
Hheps CL: 0.917 mL/min/kg

SMILES: Nc1cncc(-c2cn3ccnc3c(Nc3ccc(N4CCO[C@@H](CO)C4)cc3)n2)n1 [Ex.-3, (R)-(4-(4-((6-(6-aminopyrazin-2-yl)imidazo[1,2-a]pyrazin-8-yl)amino)phenyl)morpholin-2-yl)methanol]
Hheps CL: 1.5 mL/min/kg

SMILES: Nc1cncc(-c2cn3ccnc3c(Nc3ccc(N4CCN(CC(CO)CO)CC4)cc3)n2)n1 [Ex.-6, 2-((4-(4-((6-(6-aminopyrazin-2-yl)imidazo[1,2-a]pyrazin-8-yl)amino)phenyl)piperazin-1-yl)methyl)propane-1,3-diol]
Hheps CL: 1.3 mL/min/kg

SMILES: Cc1ncc(-c2cn3ccnc3c(Nc3ccc(N4CCN(C5COC5)CC4)c(OCCO)c3)n2)nc1N [Ex.-7, 2-(5-((6-(6-amino-5-methylpyrazin-2-yl)imidazo[1,2-a]pyrazin-8-yl)amino)-2-(4-(oxetan-3-yl)piperazin-1-yl)phenoxy)ethanol]
Hheps CL: 0.83 mL/min/kg

Results, then the molecule that gave them:

Hheps CL: 13.3 mL/min/kg
SMILES: Cc1ncc(-c2cn3ccnc3c(Nc3ccc(N4CCOCC4)cc3)n2)cc1N [6-(5-amino-6-methylpyridin-3-yl)-N-(4-morpholinophenyl)imidazo[1,2-a]pyrazin-8-amine, reference compound]

Hheps CL: 11.3 mL/min/kg
SMILES: Nc1cncc(-c2cn3ccnc3c(Nc3ccc(N4CCOCC4)cc3)n2)c1 [6-(5-aminopyridin-3-yl)-N-(4-morpholinophenyl)imidazo[1,2-a]pyrazin-8-amine, reference compound]

Hheps CL: 15 mL/min/kg
SMILES: COc1ccc(Nc2nc(-c3ccc(N)nc3)cn3ccnc23)cc1OC [6-(6-aminopyridin-3-yl)-N-(3,4-dimethoxyphenyl)imidazo[1,2-a]pyrazin-8-amine, reference compound]

Hheps CL: 1.3 mL/min/kg
SMILES: Cc1c(-c2cncc(N)n2)nc(Nc2ccc(N3CCN(C4COC4)CC3)cc2)c2nccn12 [Ex.-4, 6-(6-aminopyrazin-2-yl)-5-methyl-N-(4-(4-(oxetan-3-yl)piperazin-1-yl)phenyl)imidazo[1,2-a]pyrazin-8-amine]

Hheps CL: 1.2 mL/min/kg
SMILES: Nc1cncc(-c2cn3ccnc3c(Nc3ccc(N4CCN(C5COC5)CC4)c(OCCO)c3)n2)n1 [Ex.-5, 2-(5-((6-(6-aminopyrazin-2-yl)imidazo[1,2-a]pyrazin-8-yl)amino)-2-(4-(oxetan-3-yl)piperazin-1-yl)phenoxy)ethanol]
